Data reported in patent publication US9006265B2, “Substituted fused pyrimidinones and dihydropyrimidinones” (Bayer Intellectual Property GmbH, priority 2010, dated 2015).

Experiments:
Settings in all cases: efficacy = percentage reduction in intensity of damage, mean of three results
[1] = system: BRSNS; test: Drought stress test on crop plants in greenhouse, spray application; assay type: in vivo, Brassica napes
Experimental: (§1) Seeds of monocotyledonous and dicotyledonous crop plants were laid out in sandy loam in wood-fiber pots, covered with soil and cultivated in a greenhouse under good growth conditions. The test plants were treated at the early leaf stage (BBCH10-BBCH13). To ensure uniform water supply before commencement of stress, the potted plants were supplied with the maximum amount of water immediately beforehand by dam irrigation and, after application, transferred in plastic inserts in order to prevent subsequent, excessively rapid drying. The inventive compounds, formulated in the form of wettable powders (WP), wettable granules (WG), suspension concentrates (SC) or emulsion concentrates (EC), were sprayed onto the green parts of the plants as an aqueous suspension at an equivalent water application rate of 600 l/ha with addition of 0.2% wetting agent (agrotin). Substance application is followed immediately by stress treatment of the plants (cold or drought stress). For cold stress treatment, the plants were kept under the following controlled conditions: • “day”: 12 hours with illumination at 8° C. • “night”: 12 hours without illumination at 1° C.
(§2) Drought stress was induced by gradual drying out under the following conditions: • “day”: 14 hours with illumination at 26° C. • “night”: 10 hours without illumination at 18° C.
(§3) The duration of the respective stress phases was guided mainly by the state of the untreated (=treated with blank formulation without test compound), stressed control plants and thus varied from crop to crop. It was ended (by re-irrigating or transfer to a greenhouse with good growth conditions) as soon as irreversible damage was observed on the untreated, stressed control plants. In the case of dicotyledonous crops, for example oilseed rape and soybeans, the duration of the drought stress phase varied between 3 and 5 days, in the case of monocotyledonous crops, for example wheat, barley or corn, between 6 and 10 days. The duration of the cold stress phase varied between 12 and 14 days.
(§4) The end of the stress phase was followed by an approx. 5-7-day recovery phase, during which the plants were once again kept under good growth conditions in a greenhouse. In order to rule out any influence of the effects observed by any fungicidal action of the test compounds, it was additionally ensured that the tests proceeded without fungal infection and without infection pressure.
(§5) After the recovery phase had ended, the intensities of damage were rated in visual comparison to untreated, unstressed controls of the same age (in the case of drought stress) or the same growth stage (in the case of cold stress). The intensity of damage was first assessed as a percentage (100%=plants have died, 0%=like control plants). These values were then used to calculate the efficacy of the test compounds (=percentage reduction in the intensity of damage as a result of substance application) by the following formula:
(§6) [formula] EF: efficacy (%) DVus: damage value of the untreated, stressed control DVts: damage value of the plants treated with test compound
(§7) The tables A-1 and B-1 to B-4 below list mean values in each case from three results of the same test.
(§8) Efficacies of selected compounds of the formula (I) under drought stress using the examples of HORVS, BRSNS, ZEAMX und TRZAS: […]

[2] = system: ZEAMX; test: Cold stress test on crop plants in greenhouse, spray application; assay type: in vivo, Zea mays
Experimental: Seeds of monocotyledonous and dicotyledonous crop plants were laid out in sandy loam in wood-fiber pots, covered with soil and cultivated in a greenhouse under good growth conditions. The test plants were treated at the early leaf stage (BBCH10-BBCH13). To ensure uniform water supply before commencement of stress, the potted plants were supplied with the maximum amount of water immediately beforehand by dam irrigation and, after application, transferred in plastic inserts in order to prevent subsequent, excessively rapid drying. The inventive compounds, formulated in the form of wettable powders (WP), wettable granules (WG), suspension concentrates (SC) or emulsion concentrates (EC), were sprayed onto the green parts of the plants as an aqueous suspension at an equivalent water application rate of 600 l/ha with addition of 0.2% wetting agent (agrotin). Substance application is followed immediately by stress treatment of the plants (cold or drought stress). For cold stress treatment, the plants were kept under the following controlled conditions: • “day”: 12 hours with illumination at 8° C. • “night”: 12 hours without illumination at 1° C. The duration of the respective stress phases was guided mainly by the state of the untreated (=treated with blank formulation without test compound), stressed control plants and thus varied from crop to crop. It was ended (by re-irrigating or transfer to a greenhouse with good growth conditions) as soon as irreversible damage was observed on the untreated, stressed control plants. In the case of dicotyledonous crops, for example oilseed rape and soybeans, the duration of the drought stress phase varied between 3 and 5 days, in the case of monocotyledonous crops, for example wheat, barley or corn, between 6 and 10 days. The duration of the cold stress phase varied between 12 and 14 days. The end of the stress phase was followed by an approx. 5-7-day recovery phase, during which the plants were once again kept under good growth conditions in a greenhouse. In order to rule out any influence of the effects observed by any fungicidal action of the test compounds, it was additionally ensured that the tests proceeded without fungal infection and without infection pressure. After the recovery phase had ended, the intensities of damage were rated in visual comparison to untreated, unstressed controls of the same age (in the case of drought stress) or the same growth stage (in the case of cold stress). The intensity of damage was first assessed as a percentage (100%=plants have died, 0%=like control plants). These values were then used to calculate the efficacy of the test compounds (=percentage reduction in the intensity of damage as a result of substance application) by the following formula: [formula] EF: efficacy (%) DVus: damage value of the untreated, stressed control DVts: damage value of the plants treated with test compound The tables A-1 and B-1 to B-4 below list mean values in each case from three results of the same test. Efficacies of selected compounds of the formula (I) under cold stress using the example of ZEAMX: […]

[3] = system: ZEAMX; test: Drought stress test on crop plants in greenhouse, spray application; assay type: in vivo, Zea mays
Experimental: as §1, §2, §3, §4, §5, §6, §7, §8

[4] = system: TRZAS; test: as above; assay type: in vivo, Triticum aestivum
Experimental: as §1, §2, §3, §4, §5, §6, §7, §8

O=c1[nH]c(-c2ccc(C#Cc3ccccc3F)o2)nc2cc(Cl)ccc12 [I.1-181]
EF (BRSNS) ([1]; dosage 250 g/ha): >5%

COc1cccc2c(=O)[nH]c(-c3ccc([N+](=O)[O-])cc3)nc12 [I.1-36]
EF (ZEAMX) ([2]; dosage 25 g/ha): >5%

COc1cccc2c(=O)[nH]c(C3CCCC3)nc12 [I.1-157]
EF (ZEAMX) ([3]; dosage 500 g/ha): >5%

Cc1nn2c([nH]c(=O)c3ccccc32)c1-c1ccccc1 [I.3-1]
EF (BRSNS) ([1]; dosage 250 g/ha): >5%

Cc1cc(Cl)cc2c(=O)[nH]c(-c3[nH]ncc3Br)nc12 [I.1-165]
EF (BRSNS) ([1]; dosage 250 g/ha): >5% | EF (TRZAS) ([4]; dosage 250 g/ha): >5% | EF (ZEAMX) ([3]; dosage 250 g/ha): >5%

COc1cccc2c1NC(/C=C/c1ccccc1)NC2=O (stereo not shown) [I.4-75, 2R,S-8-methoxy-2-[(E)-2-phenylethenyl]-2,3-dihydroquinazolin-4(1H)-one]
EF (BRSNS) ([1]; dosage 250 g/ha): >5% | EF (TRZAS) ([4]; dosage 250 g/ha): >5%

CCCCCc1nc2c(OC)cccc2c(=O)[nH]1 [I.1-153]
EF (BRSNS) ([1]; dosage 500 g/ha): >5% | EF (ZEAMX) ([3]; dosage 500 g/ha): >5%

O=c1[nH]c(CCc2ccccc2)nc2c(Cl)cccc12 [I.1-172]
EF (ZEAMX) ([2]; dosage 25 g/ha): >5%

CCn1nccc1C1NC(=O)c2cccc(C)c2N1 (stereo not shown) [I.4-115]
EF (BRSNS) ([1]; dosage 250 g/ha): >5% | EF (TRZAS) ([4]; dosage 250 g/ha): >5%

Cc1cccc2c1NC(c1ccc(C(F)(F)F)cc1)NC2=O (stereo not shown) [I.4-21]
EF (ZEAMX) ([3]; dosage 1000 g/ha): >5%

O=C1NC(c2ccc(Cl)cc2)Nc2cccc(F)c21 (stereo not shown) [I.4-165]
EF (ZEAMX) ([3]; dosage 250 g/ha): >5%

Cc1nc[nH]c1-c1nc2cc(Cl)ccc2c(=O)[nH]1 [I.1-139]
EF (ZEAMX) ([3]; dosage 500 g/ha): >5%

O=C1NC(c2ccsc2)Nc2c(Cl)cccc21 (stereo not shown) [I.4-181]
EF (BRSNS) ([1]; dosage 250 g/ha): >5% | EF (ZEAMX) ([3]; dosage 250 g/ha): >5%

CN1c2ccccc2C(=O)NC1c1cnn(C)c1 (stereo not shown) [I.4-63]
EF (ZEAMX) ([2]; dosage 50 g/ha): >5%

COc1cc2nc(/C=C/c3cc(OC)c(O)c(OC)c3)[nH]c(=O)c2cc1OC [I.1-429]
EF (ZEAMX) ([2]; dosage 250 g/ha): >5%

Cc1cccc2c1C(=O)NC(c1ccsc1)N2 (stereo not shown) [I.4-180]
EF (ZEAMX) ([3]; dosage 250 g/ha): >5%

COc1cc(/C=C/C2NC(=O)c3ccccc3N2C)cc(OC)c1O (stereo not shown) [I.4-90]
EF (BRSNS) ([1]; dosage 250 g/ha): >5%

O=c1[nH]c2c(-c3ccc(Cl)cc3)c(C(F)(F)F)nn2c2ccccc12 [I.3-17, 3-(4-Chlorophenyl)-2-(trifluoromethyl)pyrazolo[1,5-a]quinazolin-5(4H)-one]
EF (BRSNS) ([1]; dosage 250 g/ha): >5% | EF (ZEAMX) ([3]; dosage 250 g/ha): >5%

O=c1[nH]c(-c2ccc(Br)cc2)nc2c(Cl)cccc12 [I.1-204]
EF (ZEAMX) ([2]; dosage 25 g/ha): >5%

Cc1cccc2c(=O)[nH]c(CCc3ccccc3)nc12 [I.1-145]
EF (BRSNS) ([1]; dosage 50 g/ha): >5%

CCN(CC)CCN1C(=O)c2cccc(OC)c2NC1c1ccnn1C (stereo not shown) [I.4-330]
EF (TRZAS) ([4]; dosage 250 g/ha): >5% | EF (ZEAMX) ([3]; dosage 250 g/ha): >5%

CCn1ccc(C2NC(=O)c3cccc(OC)c3N2)n1 (stereo not shown) [I.4-97]
EF (TRZAS) ([4]; dosage 250 g/ha): >5% | EF (ZEAMX) ([3]; dosage 250 g/ha): >5%

CC(C)c1nc2ccccc2c(=O)[nH]1 [I.1-15]
EF (ZEAMX) ([3]; dosage 500 g/ha): >5%

CCN(CC)CCN1C(=O)c2cccc(OC)c2NC1c1ccc(C(F)(F)F)cc1Cl (stereo not shown) [I.4-324]
EF (ZEAMX) ([3]; dosage 250 g/ha): >5%

CCOC(=O)c1c(C#N)nn2c1[nH]c(=O)c1ccccc12 [I.3-32]
EF (ZEAMX) ([3]; dosage 250 g/ha): >5%

Cc1ccc(-c2nc3ccccc3c(=O)[nH]2)o1 [I.1-44]
EF (ZEAMX) ([3]; dosage 500 g/ha): >5%

COc1cc2nc(-c3ccoc3)[nH]c(=O)c2cc1OC [I.1-424]
EF (ZEAMX) ([3]; dosage 250 g/ha): >5%

O=C1NC(c2ccc(F)cc2F)Nc2c(Cl)cccc21 (stereo not shown) [I.4-175]
EF (ZEAMX) ([3]; dosage 250 g/ha): >5%

Cn1cccc1-c1nc2cc(Cl)ccc2c(=O)[nH]1 [I.1-197]
EF (TRZAS) ([4]; dosage 250 g/ha): >5% | EF (ZEAMX) ([3]; dosage 250 g/ha): >5%

Cc1cccc2c(=O)[nH]c(-c3ccc(Br)cc3)nc12 [I.1-378]
EF (TRZAS) ([4]; dosage 250 g/ha): >5%

Cc1cccc2c1NC(c1ccoc1)NC2=O (stereo not shown) [I.4-84]
EF (ZEAMX) ([3]; dosage 250 g/ha): >5%

COc1cccc2c1NC(CCc1ccccc1)NC2=O (stereo not shown) [I.4-16]
EF (BRSNS) ([1]; dosage 250 g/ha): >5%

O=c1[nH]c(C2CCCC2)nc2c(O)cccc12 [I.1-148]
EF (ZEAMX) ([3]; dosage 500 g/ha): >5%

Cc1ccc(C2NC(=O)c3c(C)cccc3N2)cc1 (stereo not shown) [I.4-193]
EF (TRZAS) ([4]; dosage 250 g/ha): >5%

O=C1NC(c2ccoc2)Nc2ccccc21 (stereo not shown) [I.4-51]
EF (ZEAMX) ([2]; dosage 250 g/ha): >5%

COc1cc2nc(-c3cccc(C(F)(F)F)c3)[nH]c(=O)c2cc1OC [I.1-440]
EF (ZEAMX) ([2]; dosage 25 g/ha): >5%

O=C1NC(c2ccoc2)Nc2cccc(Cl)c21 (stereo not shown) [I.4-232]
EF (BRSNS) ([1]; dosage 250 g/ha): >5% | EF (TRZAS) ([4]; dosage 250 g/ha): >5%

Cc1cc(-c2nc3ccccc3c(=O)[nH]2)oc1C [I.1-45]
EF (ZEAMX) ([3]; dosage 500 g/ha): >5%

O=c1[nH]c(-c2nc[nH]n2)nc2ccccc12 [I.1-30]
EF (ZEAMX) ([3]; dosage 500 g/ha): >5%

O=C1NC(c2ccsc2)Nc2cccc(F)c21 (stereo not shown) [I.4-177]
EF (ZEAMX) ([3]; dosage 250 g/ha): >5%

O=c1[nH]c(COc2ccccc2)nc2cc(Cl)ccc12 [I.1-303]
EF (ZEAMX) ([3]; dosage 250 g/ha): >5%

CN1c2ccccc2C(=O)NC1c1ccoc1 (stereo not shown) [I.4-85]
EF (ZEAMX) ([3]; dosage 250 g/ha): >5%

O=C1NC(CCc2ccccc2)Nc2cccc(F)c21 (stereo not shown) [I.4-184]
EF (ZEAMX) ([2]; dosage 250 g/ha): >5%

Cc1ccc(C2NC(=O)c3cccc(Cl)c3N2)c(Cl)c1 (stereo not shown) [I.4-295]
EF (ZEAMX) ([3]; dosage 250 g/ha): >5%

Cc1ccc2c(=O)[nH]c(-c3ccc(Cl)cc3)nc2c1 [I.1-318]
EF (ZEAMX) ([3]; dosage 250 g/ha): >5%

Cc1cccc2c(=O)[nH]c(/C=C/c3cccnc3)nc12 [I.1-338]
EF (BRSNS) ([1]; dosage 100 g/ha): >5% | EF (TRZAS) ([4]; dosage 100 g/ha): >5% | EF (ZEAMX) ([3]; dosage 100 g/ha): >5%

O=C1NC(c2ccc(Br)cc2F)Nc2cccc(F)c21 (stereo not shown) [I.4-227]
EF (TRZAS) ([4]; dosage 250 g/ha): >5%

O=c1[nH]c(-c2cc(Br)cs2)nc2c(Cl)cccc12 [I.1-201]
EF (ZEAMX) ([3]; dosage 250 g/ha): >5%
